Assay [1] relates to monoclonal catalytic antibody 2E4 raised to the RG2 hapten-KLH conjugate. In words: deamidation of the Asn-Gly substrate catalysed by antibody 2E4 (glutamate dehydrogenase coupled ammonia assay). Format: biochemical, mouse. The source says: (§1) The resulting hybridomas are subjected to a preliminary screening for binding to the hapten using standard methods specifically as described in U.S. Pat. No. 5,079,152 to Benkovic et al, noted above. […] This assay is chosen to specifically screen for those antibodies which catalyze the deamidation reaction and assays by the determination of ammonia. The procedure is a modification of known procedures which use glutamate dehydrogenase to detect ammonia. (See Foncesca-Wollheim, F. Clin. Chem., […], 1483-1487 (1990), and von Anken, H. D., Schiphorst, M. E., Clinica Chimica Acta, 56, 151-157 (1974)).
The deamidation to the cyclic imide intermediate is assayed by a spectrophotometric procedure coupling the antibody-catalyzed reaction to the enzyme glutamate dehydrogenase. Glutamate dehydrogenase utilizes the ammonia produced from the antibody-catalyzed deamidation reaction to convert alpha-ketoglutarate into glutamic acid, oxidizing nicotimamide dinucleotide phosphate in the process (NADPH is oxidized to NADP). The glutamate dehydrogenase reaction is monitored spectrophotometrically.
Thirty antibodies are picked for assay for catalytic activity. The antibodies are delivered in phosphate buffered saline solutions. These are then dialyzed into bicine buffer (pH 9.0, 0.10M) and 100 uL of the dialyzed solution was then added to a solution of bicine (166 uL, pH 9.0, 0.10M). To this is added 16.5 uL of a solution containing 400 uM NADPH, α-ketoglutarate, and adenosine diphosphate. This is mixed thoroughly and then 16.5 uL of analytical grade glutamate dehydrogenase (Boehringer Mannheim) is added and the solution is again mixed thoroughly. The reaction is initiated by addition of the substrate which is stored in a DMSO solution such that the total concentration of DMSO was 5%.
The solution is then transfered to a small cuvette and the decrease in absorbance at 340 nanometers is followed over a period of several hours. Control reactions are performed under identical conditions without the addition of antibody to the reaction mixture (bicine buffer was added in place of the antibody to maintain volume). The antibody catalyzed rate is determined by subtracting the overall rate (antibody-catalyzed and spontaneous rates) from the spontaneous rate determined from the control reaction.
This is not a Vmx since the substrate was not at total saturation of the antibody. The actual rate enhancement is probably greater. […]

The test system of assay [2] is monoclonal catalytic antibody 24C3 raised to the RG2 hapten-KLH conjugate. In words: deamidation of the Asn-Gly substrate catalysed by antibody 24C3 (glutamate dehydrogenase coupled ammonia assay). It is filed as biochemical, mouse.
Description: as §1
The deamidation to the cyclic imide intermediate is assayed by a spectrophotometric procedure coupling the antibody-catalyzed reaction to the enzyme glutamate dehydrogenase. […] The glutamate dehydrogenase reaction is monitored spectrophotometrically. […]
The solution is then transfered to a small cuvette and the decrease in absorbance at 340 nanometers is followed over a period of several hours. […] The antibody catalyzed rate is determined by subtracting the overall rate (antibody-catalyzed and spontaneous rates) from the spontaneous rate determined from the control reaction. […]

Counter-ions that a name gives are not always drawn. Square brackets hold non-standard residues; d marks the D form. Peptide text beside a SMILES is read from it. * marks the point of attachment. ξ: configuration not given here. NHPhenethyl = c1ccc(CCN*)cc1; ξN = NC(=O)CC(N)C(=O)O

What is called Km is the substrate concentration at which the rate is half of its maximum. For the molecule `CC(=O)NC(CC(N)=O)C(=O)NCC(=O)NCCc1ccccc1` (stereo not drawn) [substrate, phenyl ethyl derivative of the asparaginyl-glycyl dipeptide] (Ac-[ξN]-Gly-NHPhenethyl), the kcat in assay [1] (2E4 investigated in more detail) is 1.5±0.3×10^-4 s^-1; in assay [1] (25° C., bicine pH 9.0, substrate 451 uM, antibody 27.4 uM, not a Vmax, substrate not at total saturation), 0.416 h⁻¹; in assay [2] (not a true Vmax), 0.352. The Michaelis constant (Km) in assay [1] (2E4 investigated in more detail, read-out: binding affinity for the substrate (Km)) is 220 ± 10 µM.
Regarding `O=C(O)CCCC(=O)NC1CP(=O)(O)C(CC(=O)NCCc2ccccc2)C1O` (stereo not drawn) [phospholane hapten, N-(Z-Phenylethyl)-[1'-hydroxyphosphol-3'-hydroxy-4'-(5-hydroxy-5-oxo-pentanoyl)amino-1'-oxo-2'-yl]acetamide disodium salt], the results for the “inhibition of antibody-catalysed deamidation by hapten” value in assay [1] and in assay [2] were “stoichiometrically inhibited” and “inhibition of this reaction with hapten”, respectively.

The values above are taken from patent US5439812A, “Antibodies catalyzing deamidation of proteins” (The Pennsylvania Research Corporation, priority 1992, dated 1995).
